Assay results published in ChEMBL document CHEMBL1126968, “Synthesis and biological evaluation of some 25,26-epoxy-1,24-dihydroxyvitamin D3 analogues” (1993).

Columns and labels:
HL-60 = assay: Percent activity for its capability to induce differentiation of human promyeloid leukemia HL-60 cells; type: functional; parameters: concentration or dose not given beside the values
[1] = biological target: T1, Vitamin D3 receptor (Sus scrofa) (UniProt A3RGC1); assay: Inhibition of [3H]1-alpha,25-dihydroxy-vitamin D3 binding to porcine intestinal mucosal vitamin D receptor
T1 sequence (whole entry): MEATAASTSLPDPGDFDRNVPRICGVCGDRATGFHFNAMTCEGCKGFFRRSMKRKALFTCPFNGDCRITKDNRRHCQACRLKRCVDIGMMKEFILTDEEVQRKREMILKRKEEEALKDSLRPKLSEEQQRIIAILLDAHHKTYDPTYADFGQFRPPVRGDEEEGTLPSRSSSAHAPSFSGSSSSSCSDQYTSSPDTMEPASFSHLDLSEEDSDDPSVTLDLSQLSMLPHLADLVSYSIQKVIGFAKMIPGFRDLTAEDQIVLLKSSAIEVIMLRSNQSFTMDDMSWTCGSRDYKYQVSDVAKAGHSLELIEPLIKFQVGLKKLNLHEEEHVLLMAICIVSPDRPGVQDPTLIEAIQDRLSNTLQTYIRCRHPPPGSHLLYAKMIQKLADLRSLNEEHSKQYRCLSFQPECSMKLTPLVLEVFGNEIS

Row | Receptor binding [1] | Structure (SMILES) | Activity (HL-60) [%]
1 | 5 | C=C1/C(=C\C=C2/CCC[C@]3(C)[C@@H]([C@H](C)CC[C@H](O)[C@]4(C)CO4)CC[C@@H]23)C[C@@H](O)C[C@@H]1O | 7
2 | 27 | C=C1/C(=C\C=C2/CCC[C@]3(C)[C@@H]([C@H](C)CCCC4(C)CO4)CC[C@@H]23)C[C@@H](O)C[C@@H]1O (some centres undefined) | 37
3 | 1 | C=C1/C(=C\C=C2/CCC[C@]3(C)[C@@H]([C@H](C)CC[C@H](O)[C@@]4(C)CO4)CC[C@@H]23)C[C@@H](O)C[C@@H]1O | 44
4 | 8 | C=C1/C(=C\C=C2/CCC[C@]3(C)[C@@H]([C@H](C)/C=C/[C@@H](O)[C@@]4(C)CO4)CC[C@@H]23)C[C@@H](O)C[C@@H]1O | 30
5 | 9 | C=C1/C(=C\C=C2/CCC[C@]3(C)[C@@H]([C@H](C)CC[C@@H](O)[C@]4(C)CO4)CC[C@@H]23)C[C@@H](O)C[C@@H]1O | 33
6 | 8 | C=C1/C(=C\C=C2/CCC[C@]3(C)[C@@H]([C@H](C)/C=C/[C@H](O)[C@]4(C)CO4)CC[C@@H]23)C[C@@H](O)C[C@@H]1O | 30
7 | 20 | C=C1/C(=C\C=C2/CCC[C@]3(C)[C@@H]([C@H](C)CC[C@@H](O)[C@@]4(C)CO4)CC[C@@H]23)C[C@@H](O)C[C@@H]1O | 12
